# Measurements published in paper PMC5904360, “Soluble N-Ethylmaleimide-Sensitive Factor Attachment Protein Receptor-Derived Peptides for Regulation of Mast Cell Degranulation” (Frontiers in Immunology, 2018).
# Tests used:
# SN23-Syn4-Vp8 complex = target: T1, SN23-Syn4-Vp8 complex (Rattus norvegicus, UniProt O70377+Q08850+Q9WUF4); assay: Co-immunoprecipitation of SNARE complexes in activated RBL-2H3 cells, anti-SNAP-23 blot; type: cell-based; conditions: peptides added to the medium after A23187 pretreatment; IP of Vp8, blot anti-SNAP-23 (Figure 4C)
# T1 construct: Lysates of RBL-2H3 cells; endogenous in cells; host or cells: RBL-2H3 (ATCC CRL-2256)
# T1 sequence (Q08850 1-298): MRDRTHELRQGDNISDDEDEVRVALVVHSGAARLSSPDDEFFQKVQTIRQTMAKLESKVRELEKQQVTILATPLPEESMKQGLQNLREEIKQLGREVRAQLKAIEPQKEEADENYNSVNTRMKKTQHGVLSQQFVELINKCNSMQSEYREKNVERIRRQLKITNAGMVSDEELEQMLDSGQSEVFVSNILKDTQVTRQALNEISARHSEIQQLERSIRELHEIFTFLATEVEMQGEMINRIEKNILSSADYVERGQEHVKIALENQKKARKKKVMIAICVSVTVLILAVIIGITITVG
# T1 sequence (O70377 1-210): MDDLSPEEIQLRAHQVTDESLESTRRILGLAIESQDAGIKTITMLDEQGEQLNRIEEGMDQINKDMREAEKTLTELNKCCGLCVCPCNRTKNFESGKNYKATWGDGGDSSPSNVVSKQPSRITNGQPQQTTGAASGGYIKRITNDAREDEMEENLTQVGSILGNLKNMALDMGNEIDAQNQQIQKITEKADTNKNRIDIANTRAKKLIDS
# T1 sequence (Q9WUF4 1-100): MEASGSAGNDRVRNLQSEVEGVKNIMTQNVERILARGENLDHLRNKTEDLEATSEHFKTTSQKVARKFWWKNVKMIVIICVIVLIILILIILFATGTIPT
# Method: Lysates of RBL-2H3 cells (0.5–1 × 10^6 cells), which were obtained by the addition of 1 mL lysis buffer (50 mM Tris–HCl, 150 mM NaCl, 1% Triton X-100™, 1 mM EDTA, pH 7.5) supplemented with a protease inhibitor cocktail (Calbiochem®, Merck Millipore, Billerica, MA, USA), were centrifuged at 13,000 g at 4°C to remove cell debris and precleared with 100 µL protein G Sepharose® (GE Healthcare) for 2 h at 4°C. The precleared lysates were incubated with antibodies against SNARE proteins (Syn4, SNAP-23, VAMP2, and VAMP8) for 2 h at 4°C for binding, and then the antibody–antigen complexes were precipitated by incubation with a protein G slurry overnight with constant shaking. After an extensive washing step with lysis buffer, an immunoblotting analysis was performed for the precipitates. The immunoprecipitated proteins and cell lysates were electrophoresed on 12% sodium dodecyl sulfate-polyacrylamide gel electrophoresis gels and then transferred to nitrocellulose blotting membranes (GE Healthcare). After blocking the membranes in TBST (10 mM Tris–HCl, 150 mM NaCl, and 0.05% Tween® 20, pH 8) containing 0.5% BSA and 5% skim milk for 1 h at room temperature, primary anti-SNAP-23 antibody (1:1,000 dilution) in TBST supplemented with 1% BSA and 0.01% sodium azide was added and incubated at 4°C overnight. The membranes were washed with TBST, treated with a horseradish peroxidase-conjugated secondary anti-mouse IgG antibody (A4416, Sigma-Aldrich), and visualized using enhanced chemiluminescence solution for the development of a luminescent signal.
# [1] = target: T2, SN23-Syn4-Vp2 SNARE complex (Rattus norvegicus, UniProt O70377+P63045+Q08850); assay: SNARE-driven membrane fusion (total lipid mixing) assay with proteoliposomes; type: biochemical; conditions: for inhibition of membrane fusion (lipid mixing): inhibitor applied to T-vesicles, T:V 9:1, 37°C, NBD dequenching, Vp2S/Vp8S at 10 µM, three independent experiments (Figure 3B-D); for inhibition of membrane fusion, peptide added after preincubation: peptide added after preincubation of T- and V-liposomes at 4°C overnight (partially zippered SNAREs) (Figure 4A); for inhibition of membrane fusion, peptide added before preincubation: peptide added before preincubation of T- and V-liposomes at 4°C overnight (Figure 4A)
# T2 construct: Syn4 (amino acids 1–298); SNAP-23 (amino acids 1–210); full-length VAMP2 (VpF, amino acids 1–116); GST (N, cleaved yes); made in house; host or cells: Escherichia coli Rosetta(DE3)pLysS
# Excerpt: Total RNA was obtained from RBL-2H3 cells using TRIzol® Reagent (#15596026, Invitrogen, Carlsbad, CA, USA) and served as a template for cDNA synthesis with M-MLV reverse transcriptase (M1705, Promega, Madison, WI, USA) according to the manufacturer’s protocol. The cDNAs amplified for rat Syn4, SNAP-23, VAMP2, VAMP4, VAMP7, and VAMP8 using each primer pair ([4]), were cloned into the pGEX-4T 1 vector. The mast cell SNARE proteins [Syn4 (amino acids 1–298), SNAP-23 (amino acids 1–210), full-length VAMP2 (VpF, amino acids 1–116), VAMP4 (amino acids 1–141), and VAMP8 (amino acids 1–100)] were expressed in Escherichia coli Rosetta(DE3)pLysS (#70956, Novagen, Darmstadt, Germany) and purified as glutathione-S-transferase-tagged fusion proteins as reported previously ([8]).
# To prepare the unilamellar liposomes, a 50-mM lipid mixture of palmitoyl-2-oleoylphosphatidylcholine (POPC) (#850457, Avanti Polar Lipids, Alabaster, AL, USA):1,2-dioleoyl-phosphatidylserine (DOPS) (#840035, Avanti Polar Lipids) at 65:35 mol% was dried in a glass tube under a gentle stream of nitrogen gas and then exposed to a vacuum overnight. The resultant lipid film was resuspended in dialysis buffer (25 mM HEPES and 100 mM KCl, pH 7.4) by vortexing, followed by an extrusion step with polycarbonate membrane filters having a pore size of 100 nm (#610005, Avanti Polar Lipids). To prepare proteoliposomes, binary T-SNAREs, which were pre-formed by mixing Syn4 and SNAP-23 at room temperature for 60 min, were incubated with 50 mM unilamellar liposomes for 15 min at the same temperature, resulting in a 50:1 lipid/protein molar ratio ([9]).
# For the preparation of V-SNARE proteoliposomes, a 10-mM premixed lipid solution [POPC:DOPS:N-(7-nitro-2-1,3-benzoxadiazol-4-yl (NBD))-phosphatidylserine (#810198, Avanti Polar Lipids):[…] (#810150, Avanti Polar Lipids) = 62:35:1.5:1.5 (molar ratio)] was used for the preparation of fluorescent liposomes in the same manner as above. The prepared liposomes were then mixed with VAMP2 for 15 min at room temperature. The liposome/protein mixture was diluted twice to bring the concentration of n-octyl glucoside (O8001, Sigma-Aldrich) below the critical micelle concentration. After overnight dialysis against 1L dialysis buffer at 4°C to remove the detergent, SM-2 bio-beads (#1523920, Bio-Rad Laboratories, Hercules, CA, USA) were added to the sample to remove any remaining n-octyl glucoside. The solution was then centrifuged at 10,000 × g to remove the protein/lipid aggregates, and the final lipid concentrations of both the T- and V-liposomes were adjusted to 1 mM with a lipid-to-protein ratio of 50:1.
# A total lipid mixing assay using the T- and V-liposomes was performed as described previously with minor modifications ([8]). […] The fusion was monitored using the dequenching of NBD fluorescence signal (excitation 465 nm/emission 530 nm). After at least 80 min of fusion, the maximum NBD signal was obtained by adding 0.1% Triton X-100™. All the lipid-mixing experiments were performed at 37°C.
# T2 sequence (P63045 whole entry, one chain of several, the tested form may be a part): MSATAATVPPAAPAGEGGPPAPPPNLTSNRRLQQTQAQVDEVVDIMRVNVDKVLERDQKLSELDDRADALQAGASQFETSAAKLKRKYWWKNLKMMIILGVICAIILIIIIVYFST
Sequence,SNARE complex formation in cells (amount of SN23-Syn4-Vp8 complex) (SN23-Syn4-Vp8 complex),inhibition of membrane fusion (lipid mixing) [1],"inhibition of membrane fusion, peptide added after preincubation [1]","inhibition of membrane fusion, peptide added before preincubation [1]"
"LQSEVEGVKNIMTQNVE [Vp8N, 17-mer peptide, N-terminal region of VAMP8 SNARE motif]",reduced,–,–,–
"SARHSEIQQLERTIREL [Syn4N, 17-mer peptide, N-terminal region of syntaxin 4 SNARE motif]",reduced,inhibited membrane fusion by both the SN23-Syn4-Vp2 and SN23-Syn4-Vp8 complexes,inhibitory activities significantly diminished,inhibited the membrane fusion induced by both SN23-Syn4-Vp2 and SN23-Syn4-Vp8
"EDEMEENLTQVGSILGN [SC23N, 17-mer peptide, N-terminal region of SNAP-23 SNARE motif SC23]",reduced,inhibited membrane fusion by both the SN23-Syn4-Vp2 and SN23-Syn4-Vp8 complexes,inhibitory activities significantly diminished,inhibited the membrane fusion induced by both SN23-Syn4-Vp2 and SN23-Syn4-Vp8
